Measured values: US20260337661A1, “BIOMARKERS OF THE INTEGRATED STRESS RESPONSE AND USES THEREOF” (Calico Life Sciences LLC, priority 2023, published 2026)

How the values were obtained:
[1] = tested on: ISR signature genes, including Atf5, Eif4ebp1 and Trib3; conditions: previously shown; cited from earlier work
ISR signature genes = assay: Gene expression of the ISR signature in cerebellum and spinal cord of VWM mice treated with 2BAct; assay type: in vivo, mouse; conditions: 30 mg/kg in food pellets, four months
Description: (§1) FIGS. 2A and 2B depict gene expression of the ISR signature and GDF15 in the cerebellum (FIG. 2A) and spinal cord (FIG. 2B) of VWM mice and WT mice following 4 months of treatment with 30 mg/kg 2BAct in food pellets or control chow. Samples were also collected after a drug washout period of 2 months.
(§2) In this example, a VWMD mouse model harboring a R191H mutation in eIF2B was used.
(§3) VWM mice and WT mice were treated with 2BAct at 30 mg/kg for four months in food pellets. Subsequently, expressions of ISR signature genes and GDF15 in the cerebellum were determined.

GDF15 [2] = assay: GDF15 protein in astrocyte-derived exosomes (ADE) and neuron-derived exosomes (NDE) in plasma of VWM mice (immunoassay); assay type: in vivo, mouse
Description: GDF15 protein was quantified in astrocyte-derived exosomes (ADEs) or neuron-derived exosomes (NDEs) in plasma using immunoassay. ADEs and NDEs were captured with anti-GLAST antibody and anti-SNAP25 antibody, respectively. GLAST is an astrocyte specific cell-surface protein; SNAP25 is highly expressed on neuronal membrane. The detection of GDF15 was performed by incubation with a specific anti-GDF15 antibody followed by an anti-mouse IgG conjugated to Horseradish peroxidase.

GDF15 [3] = assay: GDF15 protein levels in CSF and plasma of VWM mice treated with 2BAct; assay type: in vivo, mouse
Description: FIG. 2E and FIG. 2F show GDF15 protein levels determined in CSF (FIG. 2E) and plasma (FIG. 2F) in WT mice, VWM mice, and VWM mice treated with 2BAct for 4 months and 2 months after cessation of 2BAct treatment. *p<0.05, **p<0.01, ***p<0.001 by Mann Whitney.
as §2, §3

[4] = previously shown; cited from earlier work
GDF15 [5] = assay: GDF15 mRNA levels in the CNS (cerebellum, spinal cord) of VWM mice treated with 2BAct; assay type: in vivo, mouse; conditions: cerebellum and spinal cord, FIGS. 2C and 2D
Description: as §1
FIG. 2C and FIG. 2D show GDF15 mRNA levels determined in cerebellum (FIG. 2C) and spinal cord (FIG. 2D) in WT mice, VWM mice, and VWM mice treated with 2BAct for 4 months and 2 months after cessation of 2BAct treatment. *p<0.05, **p<0.01, ***p<0.001 by Mann Whitney.
as §2, §3

For `O=C(COc1ccc(Cl)c(F)c1)NC12CC(NC(=O)c3cnc(C(F)F)cn3)(C1)C2` [Compound 2BAct], the “ISR signature genes, including Atf5, Eif4ebp1 and Trib3, in the brain” value [1] is listed as “suppress the ISR signature genes”, the “ISR gene expression signature in the cerebellum” value (ISR signature genes; FIG. 2A) is listed as “inhibited the ISR gene expression signature” and the “ISR gene expression signature in the spinal cord” value (ISR signature genes; FIG. 2B) is listed as “inhibited the ISR gene expression signature”. For the same compound, the “GDF15 expression in plasma ADE” value (GDF15 [2]; 30 mg/kg for 10 days, FIG. 7A) was “suppressed GDF15 expression in plasma ADE and NDE to the level present in WT mice”, the “GDF15 expression in plasma NDE” value (GDF15 [2]; 30 mg/kg for 10 days, FIG. 7B) was “suppressed GDF15 expression in plasma ADE and NDE to the level present in WT mice” and the “downmodulation of GDF15 expression on VWM ADE” value (GDF15 [2]; astrocyte derived exosomes, FIG. 7A) was 2.7 fold. The “downmodulation of GDF15 expression on VWM NDE” value (GDF15 [2]; neuron derived exosomes, FIG. 7B) was 1.7 fold, the “CSF GDF15 levels after treatment” value (GDF15 [3]; 30 mg/kg in food pellets, 4-month treatment, FIG. 2E) was “suppressed” and the “plasma GDF15” value (GDF15 [3]; 30 mg/kg in food pellets, four months, FIG. 2F) was “did not affect plasma GDF15”. The “CSF GDF15 levels following drug washout” value (GDF15 [3]; 2 months of drug washout after 4-month treatment, FIG. 2E) was “returned to pre-dose baseline levels”, the motor deficit [4] was “corrected motor deficit” and the “GDF15 mRNA levels in the CNS following treatment” value (GDF15 [5]; 30 mg/kg in food pellets, four months) was “markedly reduced”. For the same compound, the “GDF15 mRNA levels in the CNS after cessation of treatment” value (GDF15 [5]; 2 months after cessation of 4-month treatment) was “rebounded to pre-treatment levels”.
